Assay [1] concerns CD8+ T cells in PBMCs from human patients with metastatic castrate-resistant prostate cancer. Nature of the assay: Patient PBMC restimulation assay (in vitro immunogenicity, TNFα/IFNγ intracellular flow cytometry). It counts as cell-based. As to conditions: 9-mer peptide; for Maximum fold change over negative control: TNFα+IFNγ+CD8+ T cells, highest across PBMC donors evaluated; for Maximum frequency of TNFα^+IFNγ^+CD8^+ T cells (Percent): greatest frequency among all tested PBMC donors; for Immunogenic: patient PBMC restimulation. The protocol: PBMCs from human patients with metastatic castrate-resistant prostate cancer were thawed using media (RPMI 1640 supplemented with Glutamax, 10% HI FBS, and 1× Sodium Pyruvate). Cells were counted and plated in a 96 well round bottom microplate at a concentration of 250,000 viable cells per well. Lyophilized peptides were solubilized in 100% DMSO and diluted in media to 10 μg/mL. Neoantigen peptides were added in equal volume to PBMCs for a final concentration of 5 μg/mL. CEF Peptide Pool “Plus” (Cellular Technologies, Ltd.) was utilized as a positive control and DMSO at the same final concentration as the experimental peptides was utilized as a negative control. Human IL-15 (Peprotech) was added to all wells at final concentration of 10 ng/mL.
Plates were incubated at 37° C. (5% CO2) for a total of 13 days. Media was refreshed every 2 days with IL-15 (10 ng/mL final concentration) and IL-2 (R&D systems, 10 IU/mL final concentration). On day 12, PBMCs were re-stimulated with identical experimental peptides or controls, at same concentration as peptide stimulation on Day 1. After 1-hour incubation, protein Inhibitor Cocktail (eBioscience) was added to every well and plate was incubated overnight.
On day 13, cells were stained for intracellular flow cytometry analysis. The cells were washed with PBS and stained with Live/Dead Fixable Aqua Dead Cell stain (Thermo-Fisher). Following the live/dead stain, cells were blocked using Biotin-Free Fc Receptor Blocker (Accurate Chemical & Scientific Corp). Extracellular cellular flow panel ([…] per well in 50 μL) consisted of CD3 PerCP-Cy5.5 (Biolegend), CD4 BV421 (Biolegend), and CD8 APC-Cy7 (Biolegend). After extracellular staining, cells were fixed using Foxp3/fTranscription Factor Staining Buffer Set (eBioscience) and stained for intracellular proteins (1:50 dilution) using TNFα FITC (R&D Systems) and IFNγ BV785 (Biolegend). Cells were washed and resuspended in stain buffer and analyzed using a BD Celesta flow cytometer.
Flow cytometry cell staining analysis was completed using FlowJo v10. Cells were gated on live, singlet, CD3+ cells. The CD8+ T cells were analyzed for TNFα/IFNγ expression and the frequency of double positive TNFα/IFNγ CD8+ T cells was recorded. Responses were assessed to be positive when the frequency of double positive TNFα/IFNγ CD8+ T cells due to stimulation with an experimental peptide was increased greater than or equal to 2-fold over the DMSO only negative control for that patient. Peptides were analyzed in 1 to 7 patient samples.
The 9 mer fragments shown in Table 13 were assessed for their ability to activate T cells using the Patient PBMC restimulation assay described in Example 1 using TNFα and IFNγ production by CD8^+ T cells as a readout. Self-antigens shown in Table 15 were also used in the assays. […] PBMCs from ten patients were evaluated.
(In general: A flow cytometer gives signals particle by particle.)

The target of assay [2] is HLA-A*03:01 (Homo sapiens, UniProt P04439). Nature of the assay: In vitro binding of neoantigens to class I MHC (UV peptide exchange, HLA class I ELISA). As to conditions: 100% = same binding as positive control peptide. As for the experimental part:
(§1) The 9 mer peptides identified by bioinformatics analysis were analyzed for their binding propensities to 6 common HLA class I alleles (HLA-A*01:01, A*02:01, A*03:01, A*24:02, B*07:02, B*08:01). The principle of the method is briefly described below and consists of two parts, one involving exchange of peptide with a positive control induced by Ultraviolet (UV) radiation, and the second is an enzyme immunoassay to detect stable HLA-peptide and empty HLA complexes.
(§2) HLA-bound peptides are critical for the stability of the HLA complex. A conditional HLA class I complex was stabilized by an UV-labile peptide utilizing a different peptide (Pos) for each HLA (Pos: HLA-A*01:01: […](SEQ ID NO: 409), HLA-A*02:01: […] (SEQ ID NO: 410), HLA-A*03:01: […] (SEQ ID NO: 411), HLA-A*24:02: […] (SEQ ID NO: 412), HLA-B*07:02: […] (SEQ ID NO: 413), HLA-B*08:01: […] (SEQ ID NO: 414), which could be cleaved by UV irradiation when bound to the HLA molecule. Upon cleavage, the resulting peptide fragments dissociated from the HLA class I complex since their length was insufficient to bind stably to HLA. Under the conditions in which peptide cleavage was performed (neutral pH, on melting ice), the peptide-free HLA complex remained stable.
(§3) The exchange efficiency between the peptide of interest and Pos was analyzed using an HLA class I ELISA. The combined technologies allowed the identification of ligands for an HLA molecule of interest which are potentially immunogenic.
(§4) Exchange control peptide Pos was a high affinity binder to the relevant HLA class I allele while exchange control peptide Neg was a non-binder. The UV control represented UV-irradiation of conditional HLA class I complex in the absence of a rescue peptide.
(§5) The HLA class I ELISA is an enzyme immunoassay based on the detection of beta2-microglobulin (B2M) of (peptide-stabilized) HLA class I complexes. To this end streptavidin was bound onto polystyrene microtiter wells. After washing and blocking, HLA complex present in exchange reaction mixtures or ELISA controls was captured by the streptavidin on the microtiter plate via its biotinylated heavy chain. Non-bound material was removed by washing. Subsequently, horseradish peroxidase (HRP)-conjugated antibody to human B2M was added. The HRP-conjugated antibody binds only to an intact HLA complex present in the microtiter well because unsuccessful peptide exchange results in disintegration of the original UV-sensitive HLA complex upon UV illumination. In the latter case B2M was removed during the washing step. After removal of non-bound HRP conjugate by washing, a substrate solution was added to the wells. A coloured product formed in proportion to the amount of intact HLA complex present in the samples. After the reaction was terminated by the addition of a stop solution, absorbance was measured in a microtiter plate reader. The absorbance was normalized to the absorbance of an exchange control peptide (represents 100%). Suboptimal HLA binding of peptides with a moderate to low affinity for HLA class I molecules can also be detected by this ELISA technique (Rodenko, B et al. (2006) Nature Protocols 1: 1120-32).
(§6) Peptides that had 10% or greater exchange efficiency in one of the 6 HLA alleles were considered for further immunogenicity testing and analysis.
Binding of select neoepitopes to HLA-A*01:01, HLA-A*02:01, HLA-A*03:01, HLAA*24:02, HLAAB*07:02 and HLA-B*08:01 was evaluated using the assay described in Example 1. […] As a criterion for further evaluation, peptides with an exchange rate of at least 10% with the corresponding Pos peptide for at least one of the 6 HLA alleles that we considered for further evaluation. The exchange rates with the allele specific Pos peptides, of the 24 neoantigens so identified are summarized below in Table 17. Higher percentages correspond to stronger binding to the HLA allele.

Assay [3] addresses HLA-B*07:02 (Homo sapiens, UniProt P01889). The assay is described as above. As to conditions: 100% = same binding as positive control peptide. As for the experimental part: as §1, §2, §3, §4, §5, §6
(§7) Binding of select neoepitopes to HLA-A*01:01, HLA-A*02:01, HLA-A*03:01, HLAA*24:02, HLAAB*07:02 and HLA-B*08:01 was evaluated using the assay described in Example 1. […] As a criterion for further evaluation, peptides with an exchange rate of at least 10% with the corresponding Pos peptide for at least one of the 6 HLA alleles that we considered for further evaluation. The exchange rates with the allele specific Pos peptides, of the 24 neoantigens so identified are summarized below in Table 17. Higher percentages correspond to stronger binding to the HLA allele. […]

Assay [4] has as its target HLA-A*01:01 (Homo sapiens, UniProt P04439, A114D/A174V/A182V/D101N/D185E/E176A/E190D/L180R/Q94H/R68K/S129P/T187R/V100A/V91M/W191G). The assay is described as above. The following applies: 100% = same binding as positive control peptide. The protocol: as §1, §2, §3, §4, §5, §6, §7
Assay [5] has as its target HLA-B*08:01 (Homo sapiens, UniProt P01889, A93T/A95T/D138N/E176V/E187T/K202T/Q94N/R180D/S35A/V36M/Y33D/Y91F). The description is as above. The protocol:
as §1, §2, §3, §4, §5, §6, §7

The target in assay [6] is HLA-A*24:02 (Homo sapiens, UniProt P04439, D101N/D140Y/D185E/E176V/E190D/F33S/G103R/G107R/I119L/I121M/I306V/K335N/L105A/L180Q/L300P/N151K/N90K/Q86E/Q94H/R106L/R138H/R89G/T104I/T345S/V100E/W191G/Y123F). The assay is described as above. The following applies: 100% = same binding as positive control peptide. As for the experimental part:
as §1, §2, §3, §4, §5, §6, §7

For assay [7], the system named is CD8+ and CD4+ T cells (autologous CD3+ Pan-T cells isolated from human normal PBMCs). Nature of the assay: Exogenous autologous normal donor restimulation assay (15-mer overlapping peptide pools on CD1c+ dendritic cells, TNFα/IFNγ flow cytometry). It counts as cell-based. As to conditions: Table 25, 15-mer overlapping peptide pool; for Maximum Fold Change Over Background CD4+ cells: TNFα+IFNγ+ CD4+ T cells; for Maximum Fold Change Over Background CD4+ cells / Maximum Fold Change Over Background CD8+ cells: highest fold change over negative control across normal donors; for Maximum Fold Change Over Background CD8+ cells: TNFα+IFNγ+ CD8+ T cells; for Maximum Frequency of TNFα/IFNγ Double Positive CD4+ T cells / Maximum Frequency of TNFα/IFNγ Double Positive CD8+ T cells: highest frequency across normal donors. Put shortly: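 Readout was intracellular TNFα/IFNγ flow cytometry on live CD3+ CD8+ and CD4+ cells after day-11 peptide restimulation. Stimulators were CD1c+ dendritic cells loaded with overlapping 15-mer peptide pools (2.5–10 μg/mL), irradiated, and cultured 12 days with autologous normal-donor Pan-T cells plus IL-15/IL-2. A response counted when ≥3-fold over DMSO control and at least 0.01%.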

Data on nine substances can be found in patent US12295997B2, “Prostate neoantigens and their uses” (Janssen Biotech, Inc., priority 2020, dated 2025).

Regarding P77 (FFKRAAEGF) [Peptide P77], in assay [1], the “Maximum fold change over negative control” value is on record as 3.24, the “Maximum frequency of TNFα^+IFNγ^+CD8^+ T cells (Percent)” value (from here on “Maximum frequency … (Percent)”) amounted to 0.160% and the Immunogenic result is recorded as “Yes”.
Take “P50 (QMAVIQYSCMGLMVFAM; listed as Homo sapiens) [Peptide P50]”: in assay [1], the “Maximum fold change over negative control” value turned out to be 5.14, the “Maximum frequency … (Percent)” value is on record as 0.190% and the Immunogenic entry is “Yes”.
Take “P17 (GVPGDSTRRAVRRMNTF; listed as Homo sapiens) [Peptide P17]”: the “Exchange rate with allele specific Pos peptide, HLA-A*03:01” value in assay [2] is given as 3.8%. Also, in assay [1], the “Maximum frequency … (Percent)” value is given as 0.130% and the Immunogenic entry is on record as “Yes”. For the same substance, in assay [3], the “Exchange rate with allele specific Pos peptide, HLA-B*07:02” value is listed as 38.7%. The “Exchange rate with allele specific Pos peptide, HLA-A*01:01” value in assay [4] was found to be 4.9%. For the same substance, in assay [5] (100% = same binding as positive control peptide), the “Exchange rate with allele specific Pos peptide, HLA-B*08:01” value is on record as 9%. Besides, in assay [6], the “Exchange rate with allele specific Pos peptide, HLA-A*24:02” value came out at 0.1%.
Consider “GVPGDSTRRAVRRMNTF (listed as Homo sapiens) [Neoantigen P16]”, for which, in assay [7], the “Maximum Fold Change Over Background CD4+ cells” value is given as 2.44, the “Maximum Fold Change Over Background CD8+ cells” value amounted to 2.44, the “Maximum Frequency of TNFα/IFNγ Double Positive CD4+ T cells” value is recorded as 0.039 and the “Maximum Frequency of TNFα/IFNγ Double Positive CD8+ T cells” value is reported as 0.039. For the same substance, in assay [1], the “Maximum fold change over negative control” value worked out at 65.82, the “Maximum frequency … (Percent)” value was 4.620% and the Immunogenic entry is given as “Yes”.
Take “P59 (LHPDSGNMVENGCYLRR; listed as Homo sapiens) [Peptide P59]”: in assay [1], the “Maximum fold change over negative control” value came to 10.75, the “Maximum frequency … (Percent)” value is reported as 3.010% and the Immunogenic result is “Yes”.
As for “8 (QLIAMDSAI; listed as Homo sapiens) [Peptide 8]”, in assay [5] (Binding to HLA-B*08:01, UV peptide exchange, replicate I, Pos = 100), the “Exch I (%)” value is 8.0%. For the same substance, the “Exch II (%)” value in assay [5] (Binding to HLA-B*08:01, UV peptide exchange, replicate II, Pos = 100) is on record as 7.8%. The Average % in assay [5] (Binding to HLA-B*08:01, average of Exch I and Exch II) is on record as 7.9%.
As for “P37 (MAGGVLRRLLCREPDRDGDKGASREETVVPLHIGDPVVLPGIGQCYSALF; listed as Homo sapiens) [Peptide P37]”, in assay [1], the “Maximum fold change over negative control” value came out at 3.13, the “Maximum frequency … (Percent)” value came out at 1.160% and the Immunogenic result was “Yes”.
“P27 (LHPQRETFTPRWSGANYWKLAFPVGAEGTFPAAATQRGVVRPA; listed as Homo sapiens) [Peptide P27]”: in assay [1], the “Maximum fold change over negative control” value amounted to 3.43, the “Maximum frequency … (Percent)” value was determined as 0.430% and the Immunogenic result is “Yes”.
For “NSKMALNSLNSIDDAQLTRIAPPRSHCCFWEVNAP (listed as Homo sapiens) [Neoantigen P35]”, in assay [7], the “Maximum Fold Change Over Background CD4+ cells” value is 3.47, the “Maximum Fold Change Over Background CD8+ cells” value is given as 14.44, the “Maximum Frequency of TNFα/IFNγ Double Positive CD4+ T cells” value is recorded as 0.03 and the “Maximum Frequency of TNFα/IFNγ Double Positive CD8+ T cells” value worked out at 0.26. Besides, in assay [1], the “Maximum fold change over negative control” value came to 2.67, the “Maximum frequency … (Percent)” value is given as 0.064% and the Immunogenic result is listed as “Yes”.
